The values that follow come from paper PMC10534526 (Molecules, 2023).

SMILES strings stand for the structures. Read-outs that look alike come from different tables or passages of the source.

Assay [1] has as its target T1, brain AChE (rat cortex homogenate) (Rattus norvegicus, UniProt P37136).
T1 construct: homogenate was used as the resource of AChE; from tissue; host or cells: rat cortex homogenate
T1 sequence (P37136 32-614): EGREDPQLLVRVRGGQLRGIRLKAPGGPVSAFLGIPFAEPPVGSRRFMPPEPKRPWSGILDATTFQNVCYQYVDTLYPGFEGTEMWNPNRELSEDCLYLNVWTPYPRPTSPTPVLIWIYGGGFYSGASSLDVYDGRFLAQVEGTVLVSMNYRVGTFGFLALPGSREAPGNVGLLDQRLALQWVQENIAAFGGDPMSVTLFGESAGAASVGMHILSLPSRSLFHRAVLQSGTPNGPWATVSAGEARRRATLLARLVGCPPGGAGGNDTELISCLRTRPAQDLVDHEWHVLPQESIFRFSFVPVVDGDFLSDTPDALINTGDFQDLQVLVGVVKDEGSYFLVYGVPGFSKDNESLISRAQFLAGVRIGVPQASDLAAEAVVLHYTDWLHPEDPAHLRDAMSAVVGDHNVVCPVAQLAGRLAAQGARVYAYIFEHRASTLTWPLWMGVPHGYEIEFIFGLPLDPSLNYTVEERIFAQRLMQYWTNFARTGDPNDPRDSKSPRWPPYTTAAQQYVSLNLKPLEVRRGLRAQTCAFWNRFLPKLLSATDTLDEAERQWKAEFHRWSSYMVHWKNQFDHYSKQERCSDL
The assay is described as follows: biochemical. How it is done: The ability of target compounds PS(1–10) to inhibit AChE was evaluated by the slightly modified Ellman’s method. The objective of attaching different amines to the 1,3-diphenylprop-2-enone skeleton via an ethoxy spacer was to enhance the interaction of the designed synthesized chalcones with both the PAS and CAS of AChE.
The inhibitory potential of synthesized compounds was evaluated for brain AChE by the widely used Ellman et al. process. The method involved using spectroscopic investigation at 450 nm. All the compounds with different concentrations were evaluated in triplicate including donepezil (standard AChE inhibitor).
In vitro inhibition of AChE
The inhibitory potency of target compounds on AChE was determined using spectroscopic […]
homogenate was used as the resource of AChE. For assay of AChE activity, a reaction mixture containing 100μl acetylthiocholine iodide 0.075M/L, 100μl sodium phosphate buffer (0.1M/L, pH 7.4), 20μl homogenate or serum and different concentrations of test compounds 20μl was incubated at 37° C for 15 min. The reaction was terminated by adding 50μl 3% sodium lauryl sulfate, then, 50μl, 0.2% of 5,5’–dithio-bis- (2-nitrobenzoic acid) (DTNB, 10 mg DTNB in 100 mL of Sorenson phosphate buffer, pH 8.0) was added to produce the yellow anion of 5-thio-2-nitro-benzoic acid. Assays were carried out with a blank containing all components except AChE in order to account for non-enzymatic reaction. The values of IC 50 were calculated by UV spectroscopy from the absorbance changes at 450 nm. A positive control of donepezil was used in the same range of concentrations. Each concentration was analyzed in triplicate. Data from concentration–inhibition experiments of the inhibitors were calculated by nonlinear regression analysis, using the GraphPad Prism 5 program. […]

The test system of the next assay is AGE formation. The assay is described as follows: AGE formation inhibitory activity (glucose-mediated protein glycation of BSA, spectrofluorometric). The conditions noted are these: n = 3, 60°C, 24 h, read-out: AGE Inhibitory Activity (IC50, Mean ± SD). In kind it is biochemical. How it is done: The compound PS10 with 4-methylpiperazine had better anti-glycating effects compared to the unsubstituted piperazine compound (PS6). […]
The synthesized compounds were assayed by the spectrofluorometric method for inhibition of glucose-mediated protein glycation. All the compounds and aminoguanidine (positive control) with different concentrations were evaluated in triplicate. […]
In vitro advanced glycation end-product (AGEs) formation inhibitory activity The assay for the ability of the synthesized compounds to inhibit the glucose-mediated protein glycation and the development of ﬂuorescent AGEs was performed. Different concentrations of various compounds were prepared by dissolving in DMSO. Anti-glycation assay was performed according to the methods reported by Matsuura and colleagues with slight modification. In all experiments, about 500 µl of Bovine serum albumin (1mg/ml final concentration) was incubated with 400 µl of glucose (500 mM) in the presence of 100 µl of test compounds, aminoguanidine or PBS as control buffer at different concentrations, The reaction was allowed to proceed at 60°C for 24hrs and thereafter reaction was stopped by adding 10 µl of 100% (w/v) trichloroacetic acid (TCA). Then the mixture was kept at 4°C for 10 min before subjected to centrifugation at 15,000 rpm. The precipitate was redissolved in 1ml alkaline PBS (pH10) and immediately quantified for relative amount of glycated BSA based on fluorescence intensity by spectrofluorometer LS-55 (Perkin Elmer) at 370 nm (excitation) and 440 nm (emission). Aminoguanidine was used as a positive control. Percentage inhibition was calculated. All experiments were performed in triplicate.

A short description of assay [2]: Free radical scavenging activity (DPPH, Blois method). The conditions noted are these: n = 3, read-out: Radical Scavenging Activity (EC50, Mean ± SD). Here is the method: The activity was tested using the spectrophotometric Blois method.
Radical scavenging activity (DPPH Method)
The stable 1, 1-diphenyl-2-picryl hydrazyl radical (DPPH) was used for determination of free radical-scavenging activity of the test compounds. The 0.1 mM solution of DPPH in methanol (39.4 mg in 1000 ml) was freshly prepared. Different concentrations of test compounds were added with an equal volume to methanol solution of DPPH. After 30 min at room temperature, the absorbance was recorded at 517 nm. Ascorbic acid was used as standard. IC50 values denote the concentration of sample, which is required to scavenge 50% of DPPH free radicals. IC50 value was determined from the plotted graph of scavenging activity against the different concentrations of test compounds. Ascorbic acid was applied as positive drug (Blois, 1958).
A general note: Loss of DPPH colour is used to gauge radical scavenging.

Assay [3] deals with brain GSH and TBARS levels. The assay can be described thus: Brain oxidative stress markers (GSH, TBARS) in STZ-treated rats. In kind it is in vivo, Wistar rats. The conditions noted are these: STZ i.c.v. rats; PS10 2, 5, 10 mg/kg p.o. An excerpt:
Another crucial factor that contributes to the progression of AD is oxidative stress. The brain is more vulnerable to oxidative damage compared to other organs due to its high energy demand, relatively lower level of antioxidant defense mechanisms, and high concentration of polyunsaturated fatty acids. STZ injection generates free radicals that overwhelm the brain’s defensive antioxidant system (GSH) and cause lipid membrane oxidation, leading to the production of malondialdehyde. Thus, in order to analyze the antioxidant property of PS10, the levels of TBARS and GSH were measured in the current investigation (Figure 6).
(§1) Groups IV, V, and VI (STZ + PS10): Following intracerebroventricular injections of STZ, animal groups were administered different doses of PS10 (2, 5, and 10 mg/kg, p.o., respectively), from 9 to 22 days.
(§2) After the behavioral experiment was completed, the rats were euthanized under mild anesthesia using cervical dislocation, and their brains were extracted. The homogenates were made in a buffer (pH 7.4) for further analysis. AChE activity, total protein levels, reduced GSH levels, and thiobarbituric acid reactive species (TBARS) levels were measured using the brain homogenates.

In assay [4] the test system is STZ-induced cognitive impairment in rats. The assay can be described thus: Morris Water Maze in STZ-induced dementia. Type of assay: in vivo, Wistar rats. Particulars: STZ i.c.v. 3 mg/kg rats; PS10 2, 5, 10 mg/kg p.o., day 9 to 22. Here is the method:
The STZ model (i.c.v., 3 mg/kg) is commonly used to study AD in animals. The intracerebroventricular injection of STZ, at two sub-diabetogenic doses, induces a range of symptoms including impaired cognition, metabolic and molecular changes, and neuropathological symptoms in rodents which are often found in AD subjects. […] The ROS produced can cause damage to the myelin sheath and acetyl coenzyme-A in the hippocampus. As a result, there is an increase in AChE activity, leading to behavioral disturbances, as in Alzheimer’s disease. Thus, this model is frequently used for AD interventions.
MWM is the most commonly used method to measure learning and spatial memory in rats. MWM utilizes the natural swimming ability of rats. As a result, during the retrieval phase, there is no induced stress that could affect the results. The MWM model is commonly used to test drugs that enhance memory and provide neuroprotection. Thus, it has been used to understand the effect of PS10 on the memory of animals with induced cognitive impairment by means of restoring the ELT.
To induce cognitive impairment in rats, solutions of Streptozotocin (STZ, 3 mg/kg) in artificial cerebro-spinal fluid (ACSF) were given as i.c.v. (intracerebroventricular) injections. The STZ injections were administered bilaterally on days 1 and 3 of the experimental protocol. […]

For another assay, the target named is T2, brain AChE (Rattus norvegicus, UniProt P37136).
T2 construct: from tissue; host or cells: brain homogenate of STZ-treated Wistar rats
T2 sequence (P37136 32-614): T1 sequence (P37136 32-614)
The assay is described as follows: Brain AChE activity in STZ-treated rats (brain homogenate). Type of assay: in vivo. The conditions noted are these: STZ i.c.v. rats; PS10 2, 5, 10 mg/kg p.o.
Text: The central cholinergic system is critical for cognitive function, and AD patients often suffer from cholinergic hypofunction due to increased AChE activity and the degeneration of cholinergic neurons. Animal studies have shown that the administration of STZ (i.c.v) increases brain AChE activity, which leads to cognitive impairment and memory deficits. […]. Possibly, due to these interactions between PS10 and amino acids of AChE, PS10 was able to inhibit AChE activity.
as §1, §2

Where [5] appears, read: n = 3, rat cortex homogenate, read-out: AChE Inhibitory Activity (IC50, Mean ± SD).

In the case of `CCN(CC)CCOc1ccc(C=CC(=O)c2ccccc2)cc1` [PS3, 3-(4-(2-(Diethylamino)ethoxy)phenyl)-1-phenylprop-2-en-1-one], the 50% inhibitory concentration (IC50) (in general, the point on the concentration scale where inhibition reaches its midpoint) is 47.5 ± 0.21 nM in assay [1] (setting [5]) and 67.3 ± 0.33 µM with AGE formation. Also, the EC50 – broadly, the concentration that produces a half-maximal response – in assay [2] was determined as 49.41 ± 0.22 nM.

`CN(CCOc1ccc(C=CC(=O)c2ccccc2)cc1)Cc1ccccc1` [PS4, 3-(4-(2-(Benzyl(methyl)amino)ethoxy)phenyl)-1-phenylprop-2-en-1-one]: the IC50 in assay [1] (setting [5]) was determined as 48.8 ± 0.04 nM; in the assay with AGE formation, 69.39 ± 0.2 µM. Also, the EC50 in assay [2] was determined as 49.48 ± 0.21 nM.

As to `O=C(C=Cc1ccc(OCCN2CCCCC2)cc1)c1ccccc1` [PS5, 1-Phenyl-3-(4-(2-(piperidin-1-yl)ethoxy)phenyl)prop-2-en-1-one], the IC50 in assay [1] (setting [5]) amounted to 19.7 ± 0.3 nM; in the assay on AGE formation, 55.3 ± 0.2 µM. In addition, the EC50 in assay [2] amounted to 34.4 ± 0.4 nM.

In the case of `O=C1O[C@H]([C@@H](O)CO)C(O)=C1O` [Ascorbic acid, reference compound], in assay [2], the EC50 came out at 21.7 ± 0.08 nM.

Turning to `O=C(C=Cc1ccc(OCCN2CCOCC2)cc1)c1ccccc1` [PS7, 3-(4-(2-Morpholinoethoxy)phenyl)-1-phenylprop-2-en-1-one], the IC50 in assay [1] (setting [5]) stood at 22.72 ± 0.13 nM; in the assay on AGE formation it was 51.2 ± 0.8 µM. For the same molecule, the EC50 in assay [2] is 37.65 ± 0.24 nM.

`O=C(C=Cc1ccc(OCCN2CCCC2)cc1)c1ccccc1` [PS8, 1-Phenyl-3-(4-(2-(pyrrolidin-1-yl)ethoxy)phenyl)prop-2-en-1-one]: the IC50 in assay [1] (setting [5]) was determined as 32.72 ± 0.12 nM; in the assay on AGE formation, 65.41 ± 0.36 µM. The concentration for a half-maximal effect (EC50) in assay [2] was found to be 48.64 ± 0.18 nM.

Regarding `N=C(N)NN` [Aminoguanidine (AG), Aminoguanidine, reference compound], the IC50 in the assay on AGE formation was 44.3 ± 0.12 µM.

For `CN1CCN(CCOc2ccc(C=CC(=O)c3ccccc3)cc2)CC1` [PS10, 3-(4-(2-(p-Methylpiperazin-1-yl)ethoxy)phenyl)-1-phenylprop-2-en-1-one], the concentration for half-maximal inhibition (IC50) in assay [1] (setting [5]) turned out to be 15.3 ± 0.72 nM. In the assay on AGE formation, the half-maximal inhibitory concentration (IC50) stood at 49.85 ± 0.13 µM. In assay [3], the “brain GSH level” value is reported as “reversed” and the “brain TBARS levels” value is reported as “reversed”. In assay [2], the EC50 is 22.83 ± 0.2 nM. For the same molecule, in assay [4], the “ELT (escape latency time) in MWM” value is “significantly decreased STZ-induced cognitive impairment” and the “TSTQ (time spent in target quadrant) in MWM” value was “significantly decreased STZ-induced cognitive impairment”. In addition, on brain AChE, the “brain AChE activity” value is on record as “restored”.

For `O=C(C=Cc1ccc(OCCN2CCNCC2)cc1)c1ccccc1` [PS6, 1-Phenyl-3-(4-(2-(piperazin-1-yl)ethoxy)phenyl)prop-2-en-1-one], the IC50 in assay [1] (setting [5]) turned out to be 21.4 ± 0.8 nM; in the assay with AGE formation, 64.51 ± 0.2 µM. Moreover, the EC50 in assay [2] is 46.7 ± 0.24 nM.

Turning to `O=C(C=Cc1ccc(OCCn2ccnc2)cc1)c1ccccc1` [PS9, 3-(4-(2-(1H-Imidazol-1-yl)ethoxy)phenyl)-1-phenylprop-2-en-1-one], the IC50 in assay [1] (setting [5]) came out at 26.3 ± 0.3 nM; in the assay with AGE formation, 65.7 ± 0.17 µM. In addition, in assay [2], the EC50 came out at 48.58 ± 0.42 nM.

As for `CN(C)CCOc1ccc(C=CC(=O)c2ccccc2)cc1` [PS2, 3-(4-(2-(Dimethylamino)ethoxy)phenyl)-1-phenylprop-2-en-1-one], the IC50 was 52.51 ± 0.2 nM in assay [1] (setting [5]) and 68.6 ± 0.23 µM in the assay on AGE formation. Besides, the 50% effective concentration (EC50) in assay [2] is 49.85 ± 0.11 nM.

For the molecule `O=C(C=Cc1ccc(O)cc1)c1ccccc1` [PS1, 3-(4-Hydroxyphenyl)-1-phenylprop-2-en-1-one], the IC50 in assay [1] is 36.5 ± 0.42 nM; with AGE formation, 43.6 ± 0.08 µM. Besides, the EC50 in assay [2] was found to be 22.4 ± 0.4 nM.
